The values below come from ChEMBL document CHEMBL1201862, “PubChem BioAssay data set” (2004).

Active and inactive are the calls of the source. Where only a bound is given, the exact number is not on record here.

The target in test [1] is T1, Replicative DNA helicase DnaB (Mycobacterium tuberculosis, UniProt P9WMR3).
T1 sequence (P9WMR3 whole entry): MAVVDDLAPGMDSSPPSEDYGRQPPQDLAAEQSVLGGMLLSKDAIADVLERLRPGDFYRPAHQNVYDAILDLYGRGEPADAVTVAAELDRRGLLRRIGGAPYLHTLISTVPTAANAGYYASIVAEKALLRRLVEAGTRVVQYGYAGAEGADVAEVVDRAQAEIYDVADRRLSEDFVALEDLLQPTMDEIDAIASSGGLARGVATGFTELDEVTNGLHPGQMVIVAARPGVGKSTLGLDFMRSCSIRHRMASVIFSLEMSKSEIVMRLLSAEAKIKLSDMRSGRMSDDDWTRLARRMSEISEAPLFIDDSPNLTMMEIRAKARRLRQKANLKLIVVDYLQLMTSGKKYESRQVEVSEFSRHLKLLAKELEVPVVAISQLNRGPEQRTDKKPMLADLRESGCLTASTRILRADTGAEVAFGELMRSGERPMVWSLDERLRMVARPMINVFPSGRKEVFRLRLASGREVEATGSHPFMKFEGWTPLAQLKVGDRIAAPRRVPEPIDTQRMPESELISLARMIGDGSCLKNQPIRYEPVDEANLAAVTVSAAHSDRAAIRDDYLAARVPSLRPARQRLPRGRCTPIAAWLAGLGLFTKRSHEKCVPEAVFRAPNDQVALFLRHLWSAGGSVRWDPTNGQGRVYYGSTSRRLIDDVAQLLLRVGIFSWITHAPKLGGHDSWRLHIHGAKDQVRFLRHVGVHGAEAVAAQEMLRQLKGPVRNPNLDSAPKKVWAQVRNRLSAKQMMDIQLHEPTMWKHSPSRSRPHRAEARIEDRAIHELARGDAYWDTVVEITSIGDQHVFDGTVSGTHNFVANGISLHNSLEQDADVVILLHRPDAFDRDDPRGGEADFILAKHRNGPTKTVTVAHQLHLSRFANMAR
As to the kind of experiment: DnaB intein splicing inhibitors, dose response, biochemical, cell-free fluorescence (AID 449749). The test is classed as functional.

Another test has as its target T2, Protein RecA (Mycobacterium tuberculosis, UniProt P9WHJ3).
T2 sequence (P9WHJ3 whole entry): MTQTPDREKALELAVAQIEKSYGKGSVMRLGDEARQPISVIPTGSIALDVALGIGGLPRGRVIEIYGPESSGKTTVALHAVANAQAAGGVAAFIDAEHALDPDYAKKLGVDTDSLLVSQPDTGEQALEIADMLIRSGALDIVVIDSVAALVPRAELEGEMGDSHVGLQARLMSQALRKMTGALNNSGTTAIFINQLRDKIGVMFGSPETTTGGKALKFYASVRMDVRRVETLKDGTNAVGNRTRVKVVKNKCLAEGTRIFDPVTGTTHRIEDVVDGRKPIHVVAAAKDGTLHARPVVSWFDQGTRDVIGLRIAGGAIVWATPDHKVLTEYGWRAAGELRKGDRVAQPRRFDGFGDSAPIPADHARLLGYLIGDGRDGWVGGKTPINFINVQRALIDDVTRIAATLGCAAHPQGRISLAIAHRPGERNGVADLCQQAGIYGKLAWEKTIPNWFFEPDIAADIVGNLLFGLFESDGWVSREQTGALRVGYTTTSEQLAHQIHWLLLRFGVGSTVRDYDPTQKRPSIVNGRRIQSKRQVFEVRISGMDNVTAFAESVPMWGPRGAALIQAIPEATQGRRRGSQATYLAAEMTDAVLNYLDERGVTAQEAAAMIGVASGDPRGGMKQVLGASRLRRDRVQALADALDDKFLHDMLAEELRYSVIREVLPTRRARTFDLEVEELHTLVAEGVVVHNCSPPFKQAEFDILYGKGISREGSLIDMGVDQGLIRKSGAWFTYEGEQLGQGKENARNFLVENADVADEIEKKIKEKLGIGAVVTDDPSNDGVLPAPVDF
As to the kind of experiment: Fluorescence Cell-Free Homogeneous Dose Retest to Identify Inhibitors of RecA-Intein Splicing Activity. [Related pubchem assays (depositor defined):AID2097, AID2223, AID489010, AID492950]. Type of test: functional.

Test [2] concerns Streptococcus sp. 'group A'. Briefly: Streptococcus pyogenes SK(-)GAS viability under kanamycin – luminescence, BacTiterGlo, confirmation, counter-screen for streptokinase expression inhibitor project, dose response (AID 1900). Type of test: functional, organism-based. (In general: Counterscreens check selectivity or assay interference.)
Test [3] is described as follows: Counterscreen for AddAB inhibitors: absorbance-based bacterial cell-based high throughput dose response assay for inhibitors of bacterial viability. [Related pubchem assays (depositor defined):AID435030, AID449728, AID449731, AID488942, AID488955, AID488956]. The test is classed as functional.

Take `Oc1cc(-c2cccc3ccccc23)[nH]n1`: the AC50 (commonly the midpoint of the concentration-response curve, whichever way the signal moves) in test [1] was 2.39 µM (active). The EC50 (in general, the midpoint of the concentration-response curve) on Protein RecA was 0.834 µM (active).
On to `O=C(Nc1cccc(NC(=O)c2ccccc2Cl)c1)c1ccc([N+](=O)[O-])o1`, for which the EC50 in test [2] was 4.47 µM (active). The IC50 (in general, the concentration needed to halve the response being measured) in test [3] was > 119 µM (inactive).
Regarding `Cn1c(O)c(/C=N/NC(=O)c2cc3ccccc3cc2O)c2ccccc21`, in test [3], the IC50 is > 119 µM (inactive).
`COc1ccc(CC2=CC(=O)c3ccccc3C2=O)cc1`: the results for the EC50 (in test [2]; on Protein RecA) were 11.4 µM (active) and 3.37 µM (active), respectively. Further, the AC50 in test [1] was 7.49 µM (active).
Regarding `c1coc(-c2nnc(-c3ccco3)nn2)c1`, the AC50 in test [1] is 5.79 µM (active). Also, the EC50 on Protein RecA is 7.01 µM (active).
